{"source": "paper PMC9365363", "about": "(Clinical Cancer Research, 2022)", "key": {"GBM cell lines": {"tested_on": "GBM cell lines", "assay": "cells", "format": "cell-based", "conditions": "Homo sapiens, 72 h"}, "[1]": {"tested_on": "tyrosine phosphoproteome of GBM tumors", "format": "in vivo, human", "conditions": "4 sunitinib-treated versus 7 control GBM tumors, cut-off P < 0.05"}, "PDGFRA": {"molecular_target": "PDGFRA (Homo sapiens, UniProt P16234)", "sequence (P16234 24-1089)": "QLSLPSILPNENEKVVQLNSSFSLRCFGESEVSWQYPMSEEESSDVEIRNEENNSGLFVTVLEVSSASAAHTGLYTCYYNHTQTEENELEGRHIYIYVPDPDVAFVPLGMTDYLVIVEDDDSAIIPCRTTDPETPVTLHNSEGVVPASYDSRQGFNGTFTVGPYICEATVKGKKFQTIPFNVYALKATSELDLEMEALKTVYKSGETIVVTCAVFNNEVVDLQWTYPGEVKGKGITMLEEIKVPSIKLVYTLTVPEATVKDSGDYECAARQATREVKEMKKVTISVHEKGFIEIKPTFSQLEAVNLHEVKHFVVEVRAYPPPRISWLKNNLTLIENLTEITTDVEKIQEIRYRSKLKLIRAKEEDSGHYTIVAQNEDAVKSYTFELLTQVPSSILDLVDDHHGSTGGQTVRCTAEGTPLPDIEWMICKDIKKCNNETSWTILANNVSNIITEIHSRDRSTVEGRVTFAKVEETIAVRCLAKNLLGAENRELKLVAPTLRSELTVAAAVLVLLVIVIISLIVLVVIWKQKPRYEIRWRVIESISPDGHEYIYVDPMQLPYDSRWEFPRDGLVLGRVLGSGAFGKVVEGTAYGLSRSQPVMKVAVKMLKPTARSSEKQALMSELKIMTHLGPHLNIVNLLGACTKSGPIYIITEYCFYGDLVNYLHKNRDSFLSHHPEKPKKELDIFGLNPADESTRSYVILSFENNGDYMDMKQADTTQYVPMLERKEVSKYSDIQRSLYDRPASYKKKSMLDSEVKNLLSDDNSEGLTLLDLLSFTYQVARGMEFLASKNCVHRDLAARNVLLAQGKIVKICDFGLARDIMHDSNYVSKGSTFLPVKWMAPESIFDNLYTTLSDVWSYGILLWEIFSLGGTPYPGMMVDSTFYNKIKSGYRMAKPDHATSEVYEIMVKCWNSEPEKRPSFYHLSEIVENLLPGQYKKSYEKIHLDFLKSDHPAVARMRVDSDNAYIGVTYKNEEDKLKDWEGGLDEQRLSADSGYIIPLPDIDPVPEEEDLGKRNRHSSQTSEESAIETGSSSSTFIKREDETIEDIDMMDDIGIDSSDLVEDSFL", "format": "in vivo", "conditions": "known sunitinib target; 4 sunitinib-treated, 7 control tumors"}, "PDGFRB": {"molecular_target": "PDGFRB (Homo sapiens, UniProt P09619)", "sequence (P09619 33-1106)": "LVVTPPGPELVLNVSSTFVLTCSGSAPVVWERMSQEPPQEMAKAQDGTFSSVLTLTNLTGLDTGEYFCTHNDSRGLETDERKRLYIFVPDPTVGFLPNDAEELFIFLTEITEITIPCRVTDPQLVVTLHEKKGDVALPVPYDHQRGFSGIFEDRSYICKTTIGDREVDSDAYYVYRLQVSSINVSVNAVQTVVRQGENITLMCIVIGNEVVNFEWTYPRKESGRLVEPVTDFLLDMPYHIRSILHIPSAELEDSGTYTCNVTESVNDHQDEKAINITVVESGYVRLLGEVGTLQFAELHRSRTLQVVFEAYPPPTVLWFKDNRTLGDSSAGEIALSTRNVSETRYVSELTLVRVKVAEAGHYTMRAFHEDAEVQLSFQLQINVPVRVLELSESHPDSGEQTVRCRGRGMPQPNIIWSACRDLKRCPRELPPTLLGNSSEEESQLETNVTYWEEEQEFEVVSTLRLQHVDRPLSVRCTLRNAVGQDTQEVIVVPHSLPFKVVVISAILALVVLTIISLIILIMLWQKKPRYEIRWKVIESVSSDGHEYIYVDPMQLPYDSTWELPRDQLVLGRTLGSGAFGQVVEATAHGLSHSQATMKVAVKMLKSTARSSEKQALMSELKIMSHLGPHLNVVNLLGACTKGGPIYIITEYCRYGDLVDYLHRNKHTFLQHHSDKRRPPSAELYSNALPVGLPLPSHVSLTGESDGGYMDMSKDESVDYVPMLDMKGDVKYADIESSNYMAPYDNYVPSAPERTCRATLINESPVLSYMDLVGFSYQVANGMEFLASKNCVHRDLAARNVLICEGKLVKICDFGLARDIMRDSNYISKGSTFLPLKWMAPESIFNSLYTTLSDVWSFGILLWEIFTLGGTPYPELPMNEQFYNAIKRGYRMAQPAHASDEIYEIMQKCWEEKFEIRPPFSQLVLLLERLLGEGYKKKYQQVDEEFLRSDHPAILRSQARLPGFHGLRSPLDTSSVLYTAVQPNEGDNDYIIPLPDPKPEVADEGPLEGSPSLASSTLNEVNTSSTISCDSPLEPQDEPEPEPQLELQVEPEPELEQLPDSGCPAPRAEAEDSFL", "format": "in vivo", "conditions": "known sunitinib target; 4 sunitinib-treated, 7 control tumors"}, "PTM signatures": {"tested_on": "PTM signatures", "set-up": "species or system human", "conditions": "in vivo"}, "[2]": {"format": "in vivo, human", "conditions": "all patients, last dose in the morning on the day of surgery"}, "[3]": {"conditions": "5 patients with GBM"}, "398 cancer cell lines": {"tested_on": "398 cancer cell lines", "conditions": "read-out: Geometric mean of the IC50, ref https://www.cancerrxgene.org/compound/Sunitinib/5/overview/ic50; cited from earlier work"}, "recurrent GBM": {"tested_on": "recurrent GBM", "conditions": "sunitinib-treated patients with a recurrent GBM; cited from earlier work"}, "clinical": {"assay": "clinical", "conditions": "human, in vivo, po, 50 mg once daily"}}, "note": "Read-outs that look alike come from different tables or passages of the source."}
{"compound": "CCN(CC)CCNC(=O)c1c(C)[nH]c(/C=C2\\C(=O)Nc3ccc(F)cc32)c1C", "note": "[sunitinib]", "values": [{"measurement": "IC50", "setting": "GBM cell lines; read-out: Median IC50 in GBM cell lines", "value": 5.4, "unit": "µM"}, {"measurement": "IC50", "setting": "GBM cell lines; read-out: Range of IC50 in GBM cell lines", "value": "3 to 8.5", "unit": "µM"}, {"measurement": "Number of significantly downregulated phosphopeptides", "setting": "[1]", "value": 23}, {"measurement": "Number of significantly upregulated phosphopeptides", "setting": "[1]", "value": 108}, {"measurement": "Kinase activity of PDGFRA (INKA), sunitinib-treated versus control", "setting": "PDGFRA", "value": "low and not significantly different between the groups"}, {"measurement": "Kinase activity of PDGFRB (INKA), sunitinib-treated versus control", "setting": "PDGFRB", "value": "low and not significantly different between the groups"}, {"measurement": "Moderately significant enriched signatures (PTM-SEA)", "setting": "PTM signatures", "value": "Two moderately significant NetPath derived signatures"}, {"measurement": "Strongly significantly enriched phosphosite signatures (PTM-SEA)", "setting": "PTM signatures", "value": "three strongly significantly enriched phosphosite signatures"}, {"measurement": "Perioperative complications of tumor resection after preoperative treatment", "setting": "[2]", "value": "without perioperative complications"}, {"measurement": "Relation between sunitinib tumor accumulation and use of dexamethasone and anticonvulsants", "setting": "[3]", "value": "No relation"}, {"measurement": "IC50", "setting": "398 cancer cell lines", "value": 11.6, "unit": "µM"}, {"measurement": "Tumor response and clinical benefit", "setting": "recurrent GBM", "value": "no tumor response nor clinical benefit"}, {"measurement": "Kp", "setting": "clinical", "value": 10}, {"measurement": "concentration at 11 days", "setting": "clinical", "value": 111, "unit": "nM"}, {"measurement": "concentration at 12 days", "setting": "clinical", "value": 255, "unit": "nM"}, {"measurement": "concentration at 13 days", "setting": "clinical", "value": 479, "unit": "nM"}, {"measurement": "concentration at 14 days", "setting": "clinical", "value": 105, "unit": "nM"}, {"measurement": "concentration at 18 days", "setting": "clinical", "value": 194, "unit": "nM"}]}
